# Biological target: Prostaglandin G/H synthase 1 (Homo sapiens, UniProt P23219)
# Sequence (P23219 whole entry): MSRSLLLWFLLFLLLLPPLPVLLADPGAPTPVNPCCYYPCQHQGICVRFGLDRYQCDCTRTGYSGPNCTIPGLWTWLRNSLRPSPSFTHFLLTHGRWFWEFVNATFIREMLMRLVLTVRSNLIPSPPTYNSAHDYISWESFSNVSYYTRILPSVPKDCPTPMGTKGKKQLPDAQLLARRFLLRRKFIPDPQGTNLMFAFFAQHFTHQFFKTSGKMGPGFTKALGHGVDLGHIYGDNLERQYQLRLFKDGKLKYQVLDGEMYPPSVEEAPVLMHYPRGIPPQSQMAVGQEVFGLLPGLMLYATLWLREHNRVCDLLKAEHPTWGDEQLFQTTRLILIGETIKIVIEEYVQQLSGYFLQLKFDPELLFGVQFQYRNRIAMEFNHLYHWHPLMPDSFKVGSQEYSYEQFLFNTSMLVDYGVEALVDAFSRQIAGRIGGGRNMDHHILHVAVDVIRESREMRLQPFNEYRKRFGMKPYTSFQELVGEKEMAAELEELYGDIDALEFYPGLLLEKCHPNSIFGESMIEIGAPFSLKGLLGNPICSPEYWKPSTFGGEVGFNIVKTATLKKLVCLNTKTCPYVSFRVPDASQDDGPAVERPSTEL
compound,measurement,value
Cc1ccc(-c2ncc(Cl)cc2-c2ccc(S(C)(=O)=O)cc2)cn1,Ki,> 10 µM

# — BindingDB's records for doi:10.1016/S0002-8703(03)00398-3 (University of Maryland Hospital, 2003)
